System: J774.A1
Assay: Antiinflammatory activity in mouse J774A1 cells assessed as reduction of LPS-induced iNOS expression after 6 to 12 hrs by Western blot analysis
Type: functional, cell-based
Details: not given

Row | Compound | Activity
1 | COC(=O)/C=C\[C@]1(C)[C@H]2CC[C@@]3(C)[C@H](C4=CC(O)OC4=O)OC(=O)[C@H]4O[C@]43[C@]2(C)[C@]2(O)OC(C)(C)C(=O)[C@@]21O (some centres not stated) [HARPERFOLIDE] | Dose-dependent effect

System: not listed separately
Assay: Cytotoxicity against mouse J774A1 cells assessed as cell viability at 2.5 to 20 uM after 20 hrs by MTT assay
Type: cell-based
Details: j774.a1, 20 h

Row | Compound | Activity
2 | COC(=O)/C=C\[C@]1(C)[C@H]2CC[C@@]3(C)[C@H](C4=CC(O)OC4=O)OC(=O)[C@H]4O[C@]43[C@]2(C)[C@]2(O)OC(C)(C)C(=O)[C@@]21O (some centres not stated) [HARPERFOLIDE] | Non-toxic

System: not listed separately
Assay: Antiinflammatory activity in mouse J774A1 cells assessed as reduction of LPS-induced nitric oxide production treated 2 hrs before LPS addition measured after 20 hrs by using Griess reagent
Type: functional, cell-based
Details: J774.A1

Row | Compound | IC50
3 | COc1cc(O)c2c(=O)cc(C)oc2c1CCC(C)(C)O [HARPERAMONE] | 49.6 µM
4 | COc1cc2c(c3oc(C)cc(=O)c13)C=CC(C)(C)O2 | 66.4 µM
5 | COc1ccc2c(c1)c(CC(=O)O)c(C)n2C(=O)c1ccc(Cl)cc1 [INDOMETHACIN] | 28.4 µM
6 | C[C@H]1c2ccoc2C[C@H]2[C@H]1CC[C@@H]1[C@]2(C)CCC[C@]1(C)C(=O)O [(+)-VOUACAPENIC ACID] | 132 µM
7 | CC(=O)c1c(O)c(CC=C(C)C)c(O)c2c1O[C@](C)(CCC=C(C)C)[C@H](OO)C2 | 31 µM
8 | COc1cc2oc(C)cc(=O)c2c(O)c1CC=C(C)C | 56.4 µM
9 | COC(=O)/C=C\[C@]1(C)[C@H]2CC[C@@]3(C)[C@H](c4ccoc4)OC(=O)[C@H]4O[C@]43[C@]2(C)[C@]2(O)OC(C)(C)C(=O)[C@@]21O [HARRISONIN] | 135 µM
10 | COC(=O)/C=C\[C@]1(C)[C@H]2CC[C@@]3(C)[C@H](C4=CC(O)OC4=O)OC(=O)[C@H]4O[C@]43[C@]2(C)[C@]2(O)OC(C)(C)C(=O)[C@@]21O (some centres not stated) [HARPERFOLIDE] | 6.51 µM
11 | COC(=O)c1cc(=O)c2c(O)cc3c(c2o1)C=CC(C)(C)O3 | 55 µM
12 | CC1(C)OC(=O)C=C[C@]2(C)[C@H]3CC[C@@]4(C)[C@H](c5ccoc5)OC(=O)[C@H]5O[C@]54[C@]3(C)C(=O)C[C@@H]12 [OBACUNONE] | 83.6 µM

From ChEMBL document CHEMBL2396624, “Rearranged limonoids and chromones from Harrisonia perforata and their anti-inflammatory activity” (Bioorg Med Chem Lett, 2013)
